Data: patent US9586994B2, “CD44V6-derived peptides for treating breast cancer” (KARLSRUHER INSTITUT FÜR TECHNOLOGIE, priority 2012, dated 2017)
No end group written: not given here. MeO‑PEG‑COOH = methoxy-PEG carboxylic acid, 750 or 2000 Da

How the values were obtained:
BSp73ASs6 cells [1] = test: Rat syngeneic model, subcutaneous BSp73ASs6 tumors, treatment from one week (metastasis formation); type: in vivo; conditions: rats, s.c. BSp73ASs6
Protocol: In the case of the rat syngeneic model, 1×10^6 pancreatic cells (BSp73AS and its transfectants) were subcutaneously injected into the right posterior flank of the animals. Tumors developed for four weeks. During this time period animals injected with BSp73ASs6 cells expressing Met-shRNA or control-shRNA received doxycycline in the drinking water. At the end of the experiment, primary tumors were isolated. Lungs and axillary lymph nodes were analyzed. The tissues were incubated for 24 h in a zinc-fixative (0.5 g calcium acetate, 5.0 g zinc acetate, 5.0 g zinc chloride, in 1 L 0.1 M Tris pH 7.4) and embedded in paraffin for further analysis. In case of peptide or antibody treatment tumors developed for one week before the first treatment. Where indicated, animals received 200 μg of peptide or antibody per injection three times per week for four weeks. Tumor growth was monitored weekly using a caliper Animals were killed at day 28 or 30 after start of the treatment.
For histomorphological analysis paraffin-embedded sections of lungs were stained with hematoxylin and eosin and periodic acid-Schiff (H&E or PAS). Serial sections of the whole tissue blocks were examined by analyzing slices every 20 μm; in each slice, the presence and the extension of the metastatic deposit was assessed, according to the procedure routinely used by pathologists to evaluate the presence of micrometastases.
Rat peptides had the sequences KEKWFENEWQGKNP (SEQ ID NO: 10) and NEWQG (SEQ ID NO: 11). BSp73ASs6 cells were subcutaneously injected into syngeneic rats and rat CD44v6 peptides of SEQ ID NO: 10 or SEQ ID NO: 11 (or mouse control peptides) or the CD44v6 antibody (or IgGs as a control) were injected intra-tumoral or intravenously three times a week. […] This is compatible with the fact that also BSp73AS cells or BSp73ASv1-10Δv6 cells can induce the formation of primary tumors similarly to the v6 transfectants.

CD44v6 [2] = test: HGF-induced activation of Met and ERK in L3.6pl cells (Western blot); type: cell-based, human
Protocol: (§1) Serum-starved cells (24 hours) were induced with the growth factor HGF (10 ng/mL) at 37° C. for 5 minutes. Where indicated, the cells were treated with peptides (100 ng/ml) prior to induction at 37° C. for 10 minutes (100 ng/mL CD44v6 peptide or control peptide). Following the induction with HGF, cells were washed with ice-cold phosphate-buffered saline (PBS). To detect activated Met and ERK, cells were lysed in sodium dodecyl sulfate (SDS)—sample buffer containing 100 mM dithiothreitol (DTT), boiled and subjected to western blot analysis using antibodies against phospho-Met and ERK. The loading controls were performed on the same blot after stripping (62.5 mM Tris, pH 6.8, 2% SDS, 0.8% DTT) by probing with the Met respectively Erk antibody. Blots were stained using the enhanced chemiluminescence system (Thermo Fisher Scientific, Schwerte, Germany). Bands in western blot analysis were quantified with the program Image J (National Institutes of Health).
To expand the studies to human pancreatic tumors, the highly metastatic human pancreatic carcinoma cells L3.6pl (Bruns, et al. Neoplasia (1999), 1(1):50-62) were investigated. These cells originate from the […] cells that have been passaged several times in the liver and the pancreas, a step that rendered them more and more metastatic. It was confirmed that Met is dependent on CD44v6 for its activation and signaling in these cells (FIG. 19A). The L3.6pl cells were treated with HGF in the presence or absence of a human v6 peptide of SEQ ID NO: 2 or SEQ ID NO:6 and Met activation and downstream signaling to ERK was measured. Phosphorylation of both Met and ERK was inhibited by the human v6 peptide. Treatment with a corresponding rat v6 peptide (ctrl peptide, SEQ ID NO: 10 or 11) had no influence on receptor activation and signal transduction (FIG. 19A).
The contribution of CD44v6 to Met signaling in the human epithelial pancreatic cancer cells L3.6pl (derived from Colo 357), the cervix carcinoma cells HeLa and the colon cancer cells HT29 were analysed using the CD44v6 peptide (v6 14mer; v6 5mer tested as well, data not shown).

HT29 colon cancer cells = test: Scatter assay, HGF-induced HT29 colon cancer cells; type: cell-based, human; conditions: HGF 10 ng/ml, pre-incubated with peptide
Protocol: A scatter assay was performed additionally. HT29 colon cancer cells were grown in medium containing 10% FCS. One day after seeding, the cells were starved. On the third day, the cells were induced with HGF (10 ng/ml) and pre-incubated with either no peptide, ctrl-peptides (SEQ ID NO: 15), non-pegylated v6-peptides (SEQ ID NO: 11) or the pegylated peptides, namely PEG-rat control peptide and PEG-rat CD44v6 peptide.

L3.6pl cells [3] = test: Human orthotopic pancreatic cancer model, L3.6pl cells in nude mice, treatment from day 7; type: in vivo, mouse; conditions: L3.6pl orthotopic model; 5mer instead of 14mer
Protocol: In the case of the human orthotopic model, L3.6pl pancreatic carcinoma cells (passage 24-26) were suspended in Hank's balanced salt solution (Invitrogen, Karlsruhe, Germany) after trypsinization. The cells were injected orthotopically in the pancreas of male nude mice as described (Bruns C J et al. (1999) Neoplasia 1(1):50-62). Two groups of 15 mice each were injected i.p. 7 days later with either the human v6 peptide respectively rat control peptide (20 μg). For all experiments described and depicted herein either the rat 14mer control peptide or the human 14mer peptide were used. All experiments were then repeated with the rat 5mer control peptide or the human 5mer peptide (N-R-W-H-E, SEQ ID NO: 2). […] The injection was repeated three times per week for 21 days. Two days after the last treatment the animals were killed.
7 μm thick paraffin sections were deparaffinized and rehydrated. For P-Met staining antigen unmasking was achieved by boiling the slides in 1 mM EDTA pH 8.0 followed by incubation for 15 minutes at a sub-boiling temperature, for CD31 staining the sections were treated with Proteinase K (8 μg/ml) for […] at 37° C. For immunofluorescence staining of P-Met, unspecific binding was blocked with 5% goat serum (DAKO, Glostrup, Denmark) (diluted in 1×PBS/0.3% Triton X-100) for 60 minutes. In the case of immunohistochemistry, endogenous peroxidases were at first blocked with 3% H2O2 in PBS followed by incubation with biotin blocking system (Dako, Glostrup, Denmark) and then unspecific binding was inhibited by incubation with 5% FCS in PBS was used for blocking. The sections were incubated with the P-Met antibody (D26, dilution 1:50 in 1×PBS/1% BSA/0.3% Triton X-100), Met antibody (C-28, dilution 1:50), GFP antibody (sc-101525, dilution 1:50) or CD31 antibody (5 μg/ml) over night or VFF18 (5 μg/ml) o/n at 4° C. After washing in PBS the sections were incubated with Alexa Fluor R 546 goat anti-rabbit (in case of immunofluorescence P-Met and Met staining, dilution 1:500) or a biotinylated secondary antibody (for immunohistochemical stainings rabbit anti-rat antibody for VFF18 and CD31, goat anti-rabbit for P-Met, cleaved Caspase-3 and cleaved Caspase-8 and rabbit anti-mouse for GFP, dilution 1:500) for 45 minutes. For DAB staining the sections were treated with a streptavidin-peroxidase conjugate (Dako, Glostrup, Denmark) and developed with DAB (3,3′-diaminobenzidine) substrate system (3,3′-diaminobenzidine; Biozol, Eching, Germany) For immunofluorescence DAPI was used for nuclear staining.
To test the effect of the peptide on tumor growth and metastasis formation the L3.6pl cells were orthotopically injected into the pancreas of immunosuppressed mice (NCI-nu). […] The primary tumor expresses a high amount of CD44v6 (FIG. 19B). […] Indeed, human HGF in a concentration of 3375 pg/ml was detected in the supernatant (see Material and Methods) after 5 days of culture (data not shown).

BSp73ASs6 tumors = conditions: rat
Excerpt: To avoid autofluorescence of fur, rats were shaved around the tumor prior to imaging. Subsequently, animals were anesthetized using 2% isoflurane and gently fixed on the devices' heated plate for the entire time of data acquisition. To reduce fluorescence background, rats were fed with chlorophyll-reduced food (Provimi Kliba AG, Kaiseraugst, Switzerland) for one week prior NIRF imaging. All in vivo analyses were preceded by native scans of animals without any injection of the fluorescent probe. For in vivo analysis, rats were injected with 200 μg DY681-labeled rat v6 11 mer peptide or the human v6 11 mer peptide via the tail vein. Controls were injected with the equal amount of DY681-labeled mouse v6 11mer peptide. […] All peptides were labeled with the fluorescent dye DY681. Data were acquired at the indicated time after injection of the peptides. […]
DY681 fluorescence was measured using excitation at 670 nm in combination with a 700 nm long-pass emission filter. […] Data sets were analyzed with OptiView (ART).
For in vivo experiments, BSp73ASs6 cells were injected subcutaneously into syngeneic rats. […] The accumulation of the fluorescence was measured in the tumor region by Optix MX2 at the indicated time points. […] Then, in vivo binding kinetics of the Dy681-labeled v6 peptides to the subcutaneous tumors were determined. […]

CD44v6 [4] = test: HGF-induced Met/Erk activation in BSp73ASs6 cells with DY681-labeled peptides; type: cell-based, rat; conditions: FIG. 18A right side, activation of Erk determined
Protocol: as §1
In order to test the specificity of the binding of CD44v6 peptides to the tumor site and to the metastases and to estimate the binding kinetics in vivo, near infrared fluorescence (NIRF) imaging with the Optix MX2 was. For this purpose two CD44v6 peptides were labeled with the fluorophore DY681: a rat specific one, rv6 pep Dy681 and a mouse specific one, mv6 pep Dy681, as a control.

L3.6pl cells [5] = test: Staining of fixed L3.6pl cells with DY681-labeled peptides (confocal microscopy); type: binding, human; conditions: DY681-labeled peptide
Protocol: (§2) ASs6 or L3.6pl cells were seeded at 5,000 cells/well of a Lab-TekR Chamber Slide™ (Nunc, Napierville, Ill., USA). On the following day the cells were washed with cold PBS and fixed with 4% Formalin for 30 min at RT. Unspecific binding was blocked with 1% BSA in PBS for 1 hour at RT. The cells were incubated for 1 hour with the DY681-labeled peptides. After three washing steps with PBS the cover slips were mounted with Fluorescence Mounting Medium (Dako, Glostrup, Denmark) and the immunofluorescence was measured by a laser scanning confocal microscope Leica TCS2 SP2 (Exton, Pa., USA) and processed using Leica confocal software. A 20× objective was used for imaging.

BSp73ASs6 cells [6] = test: Staining of fixed BSp73ASs6 cells with DY681-labeled peptides (confocal microscopy); type: binding, rat; conditions: 1 hour with DY681-labeled peptide
Protocol: as §2

CD44v6 [7] = test: Activation assay with pegylated peptides: HGF-induced Met and ERK activation in BSp73ASs6 cells; type: cell-based, rat
Protocol: The PEG-control peptide and PEG-rat CD44v6 peptide were compared for their ability to block HGF induced activation of the receptor tyrosine kinase Met and ERK.
Rat pancreatic cancer cells BSp73ASs6 (also designated Ass6) were incubated for 10 min at 37° C. with either ctrl-peptides (SEQ ID NO: 15), non-pegylated v6-peptides (SEQ ID NO: 11) and increasing concentrations of the pegylated peptides, namely PEG-rat control peptide and PEG-rat CD44v6 peptide, before induction with HGF (10 ng/ml; 5 min at 37° C.).
Activation of ERK and Met was determined by standard SDS and Western Blotting techniques using a phospho-Met and phospho-Erk specific antibody (phospho-Met clone D16 cell signaling, phospho-Erk p42/44 cell signaling)

L3.6pl tumors = test: In vivo and ex vivo imaging (Pearl Imager) of mice with L3.6pl tumors; parameters: species or system mouse; conditions: 24 h after injection
Protocol: In vivo imaging of the mice with the L3.6pl tumors was performed using the Pearl™ Imager (LI-COR Biosciences, Bad Homburg, Germany) The system uses two lasers (685 and 785 nm) for excitation and a charge-coupled device detector for signal detection. The laser excitation enables a deep tissue penetration. With the near-infrared detection a high sensitivity due to the reduced tissue auto-fluorescence is achieved. In order to standardize the images we made use of the Pearl Cam Software. The animals were fed with chlorophyll-reduced food to reduce the fluorescence background one week before imaging (Regime 210, safe-diets, Augy, France). Prior to imaging the mice were anesthetized with 2.0% isoflurane. Animals were placed on the heated plate of the imager and continuous delivery of isoflurane was achieved through a nose cone in the imaging drawer. Images were captured at white light, 700 and 800 nm Animals were imaged prior to i.v. peptide injection and 24 h after injection with either DY681-labeled human v6 peptide or DY681-labeled rat v6 peptide as control Immediately after each imaging session animals were killed, tumor, liver and spleen isolated and scanned ex vivo at white light, 700 and 800 nm.
Then, the specificity of binding of the human CD44v6 peptide to the tumor in vivo was examined using the small animal imaging system Pearl Impulse. […]

[8] = peptide before induction with 10 ng/ml HGF
[9] = peptide 10 min 37° C., HGF 10 ng/ml 5 min

NEWQG [SEQ ID NO: 11, rat CD44v6 5mer peptide]
Metastasis (axillary lymph nodes and lungs) (BSp73ASs6 cells [1]; 200 μg per injection i.t. or i.v., three times a week, four weeks, start after one week): completely inhibited metastasis | Metastasis and micro-metastasis in lung sections (PAS and H&E histology) (BSp73ASs6 cells [1]; 200 μg three times a week): no metastasis nor micro-metastasis could be detected | Outgrowth of primary tumors (BSp73ASs6 cells [1]; treatment for 28 days): not influenced | HGF-induced phosphorylation/activation of ERK (CD44v6 [2]; [8]): no influence | HGF-induced phosphorylation/activation of Met (CD44v6 [2]; [8]): no influence | Dissociation and migration of cells away from cell cluster (scatter) (HT29 colon cancer cells): lead to dissociation and migration of cells away from these cell cluster | Outcome of all experiments repeated with 5mer peptides, compared with 14mer (L3.6pl cells [3]): same results as for the 14mer peptides

WFENEWQGKNP (also: DY681 fluorescent dye label) [rv6 pep Dy681, rat 11mer labeled with the fluorescent dye DY681]
Ex vivo fluorescence in excised tumors and lungs (BSp73ASs6 tumors): Fluorescence intensities could only be detected in tumors and in specific areas of the lungs | Met activation (HGF-induced) with DY681-labeled peptides (CD44v6 [4]): inhibited Met activation | Binding to L3.6pl cells in cell culture (L3.6pl cells [5]): not | Binding to BSp73ASs6 cells in tissue culture (BSp73ASs6 cells [6]): bound to BSp73ASs6 cells

PEG-NEWQG ({MeO‑PEG‑COOH}-NEWQG; also: PEG 750 or 2000 Da) [PEG-rat CD44v6 peptide, rat 5mer NEWQG coupled to MeO-PEG-COOH (750 Da and 2000 Da)]
Efficiency of inhibition of ERK, pegylated vs. non-pegylated peptides (CD44v6 [7]; HGF 10 ng/ml): even more efficient | HGF dependent activation of ERK (CD44v6 [7]; [9]): efficient in inhibiting | HGF dependent activation of Met (CD44v6 [7]; [9]): efficient in inhibiting | Dissociation and migration of cells away from cell cluster (scatter) (HT29 colon cancer cells): lead to dissociation and migration of cells away from these cell cluster

WFGNRWHEGYR (also: DY681 fluorescent dye label) [labeled human v6 peptide, human 11mer labeled with the fluorescent dye DY681]
Ex vivo fluorescence of isolated organs (tumor, liver, spleen) (L3.6pl tumors; mice with L3.6pl tumors): binding not only to primary tumors but also to areas of the liver | Accumulation of fluorescence in the tumor in vivo (L3.6pl tumors; mice with orthotopic L3.6pl tumors, 20 μg i.v.): accumulated specifically in the tumor | Met activation (HGF-induced) with DY681-labeled peptides (CD44v6 [2]; FIG. 20A right side, activation of Erk determined): inhibited Met activation | Binding to L3.6pl cells in cell culture (L3.6pl cells [5]): bound to these cells in cell culture
